{
  "source": "paper PMC10285648",
  "about": "“iTAG an optimized IMiD-induced degron for targeted protein degradation in human and murine cells” (iScience, 2023)",
  "key": {"[1]": {"system": "HMEC, HEK293T, MDA-MB-231, Kelly cells", "experiment": "Cell viability assay (CellTiter-Blue)", "assay_type": "cell-based, human", "conditions": "5 days treatment", "description": "By endpoint, CellTiter-Blue reagent (Promega) was added to each well, incubated for 3 h at 37°C and absorbance was measured with a plate reader at 570nm. Average background absorbance value was subtracted from all readings when plotting the viability curve."}, "[2]": {"system": "N and C-terminally tagged KRAS^[G12V] and EZH2 (DCD23)", "experiment": "Flow cytometry of EGFP signal, DCD23-tagged KRAS G12V and EZH2 in HMEC", "assay_type": "cell-based, human", "conditions": "10uM, 4h", "source_text": "We tagged the proteins with DCD23 constructs, fused either to their N-terminus or C-terminus (Figures 2A and 2B). We stably transduced HMEC cells with these constructs and assessed their degradation. Cellular treatment with all degraders led to a decrease in the EGFP signal of the N and C-terminally tagged KRAS^[G12V] and EZH2 (Figures 2A and 2B).\nFigure 2 Degradation of cytoplasmic and nuclear targets using iTAG (A) HMEC cells expressing N-terminally tagged DCD23-EGFP-KRAS^[G12V], DCD23-EGFP-EZH2, DCD23-EGFP-cMYC or their corresponding P2A control were induced with doxycycline for 24h then treated with either DMSO or the different indicated drugs at a concentration of 10uM for 4h. Median EGFP intensity was measured in each condition using flow cytometry and normalized values were represent in the Log2 Fold change relative to the DMSO control. […] Median EGFP intensity was measured in each condition using flow cytometry and normalized values were represent in the Log2 Fold Change relative to the DMSO control. […]\nCells stably transduced with the iTAG tagged constructs were treated with 1 μg/mL of doxycycline for 24h to induce constructs expression. […] EGFP signal was measured using BD LSR II flow cytometer (BD Biosciences). […]"}, "Flag-HA-DCD19-EGFP": {"system": "Flag-HA-DCD19-EGFP", "experiment": "Degradation of Flag-HA-DCD19-EGFP in murine cells", "assay_type": "cell-based, mouse", "conditions": "2208L and PyMT, 24 h, western blotting", "description": "Given the high degradation efficiency of DCD23 in human cells, we sought to test the applicability of this system in murine cells.\nThe protein lysates were probed for EGFP using western blotting. […] EGFP signal was then measured using flow cytometry. (3 independent experiments, normalized to the control and represented as mean ± SD). […] Data are plotted as Log2 fold change relative to DMSO versus Log10 of p value."}, "[3]": {"system": "RBM39, CDK9, MAPK9, HPRT1, SMS, MAVS (tagged)", "experiment": "Western blotting, iTAG versus dTAG at 24h on six targets in SUM159", "assay_type": "cell-based, human", "conditions": "SUM159, 24h", "description": "Subsequently, we evaluated the extent of degradation induced by the two tagging systems. For this purpose, we tested targets present in different subcellular localizations at a longer time point (24h): RBM39 (-nuclear 59.3kDa-), CDK9 (Cyclin-dependent kinase 9 -nuclear 42.7kDa-), MAPK9 (Mitogen-activated protein kinase 9 -nuclear 48.1 kDa-), HPRT1 (Hypoxanthine Phosphoribosyltransferase 1-cytoplasmic 24.5kDa-), SMS (Spermine synthase –cytoplasmic 41.2kDa-), and MAVS (Mitochondrial antiviral-signaling protein -mitochondrial 56.5kDa-) (Figure S7)."}, "cMYC-EGFP-DCD19": {"system": "cMYC-EGFP-DCD19", "experiment": "Flow cytometry of EGFP signal, cMYC-EGFP-DCD19 in HMEC", "assay_type": "cell-based, human", "conditions": "10uM, 4h", "source_text": "To systematically delineate the optimal DCD/degrader combination for targeted protein degradation, we undertook a matrix approach evaluating all 23 DCD tags against 6 small molecule degraders. […] To control for any potential off-target effects of the IMiD/CeLMOD agents that could indirectly affect the target of interest, we designed controls in which the specific DCD and the EGFP sequences were interspaced by a P2A ribosomal “skipping” sequence,[32] leading to separate translation of the DCD and the target protein (Figure 1A). These constructs were then inserted into a doxycycline-inducible lentiviral vector system and stably expressed in hTERT immortalized human mammary epithelial cells (HMEC), a suitable model to assess the functional consequences of cMYC degradation. cMYC was tagged at the C-terminus end for the initial screening experiments.\nFigure 1 Design and experimental evaluation of the DCD tags (A) Representation of the experimental pipeline used to evaluate the different DCD constructs. […] Median EGFP intensity was measured in each condition using flow cytometry (3 independent experiments, normalized to the control and represented as mean ± SD). […] The protein lysates were probed for cMYC levels using western blotting. […] Target loss was evaluated either by measuring EGFP median intensity using flow cytometry or western blotting for cMYC protein (3 independent experiments, normalized to the control and represented as mean ± SD). […] Target loss was evaluated as in (D) (3 independent experiments, normalized to the control and represented as mean ± SD). […] Protein lysates were collected and probed for cMYC and p21 using western blotting. […] Protein lysates were collected and probed for cMYC and p21 using western blotting. […] These were left out as controls with no test substance.\nFollowing degrader treatment cells were collected and DAPI was added to the cell suspension at 1 μg/mL to allow the exclusion of dead cells. EGFP signal was measured using BD LSR II flow cytometer (BD Biosciences). FlowJo 10 Software (FlowJo) was used for data processing."}, "[4]": {"experiment": "Plasma CC220 level in tumor-bearing mice", "assay_type": "in vivo", "conditions": "mouse, 30 mg/kg oral, 24h post administration"}},
  "data": [
    {"smiles": "O=C1CC[C@H](N2Cc3c(OCc4ccc(CN5CCOCC5)cc4)cccc3C2=O)C(=O)N1", "note": "[CC220, Iberdomide]", "values": [
      {"measurement": "cellular toxicity", "setting": "[1]", "result": "did not induce cellular toxicity"},
      {"measurement": "change of EGFP signal", "setting": "[2]", "result": "most active degrader"},
      {"measurement": "degradation of DCD19 tagged EGFP", "setting": "Flag-HA-DCD19-EGFP", "result": "not degraded"},
      {"measurement": "degradation compared with dTAG", "setting": "[3]", "result": "more effective degradation of the targets even at low nanomolar CC220 concentrations"},
      {"measurement": "loss of cMYC-EGFP signal", "setting": "cMYC-EGFP-DCD19", "result": "robust loss of cMYC-EGFP signal"},
      {"measurement": "residual plasma level", "setting": "[4]", "result": "nanomolar range"}
    ]}
  ]
}
